The test has as its system CEM cells HIV-1 protection, formazan growth assay. Kind of test: NCI AIDS Antiviral Assay. To be noted: for IC50: measured here: growth of uninfected CEM cells. An outline of the steps:
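Screen of anti-HIV-1 activity in human CEM cells using a formazan-based growth measurement at five drug concentrations. Hits with 50% or greater protection were repeated, and confirmation required reproducible complete protection.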

Structures are written as SMILES. Several values for one entry are separate records, joined by “and”; a condition that tells them apart may be missing. Identical values can stand only once. Activity calls are given as the source filed them.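 Rule for the calls: active = compounds giving half or more protection of infected cells from virus-caused growth loss, again on retest; inactive = the rest.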

For orientation: EC50 means the concentration giving half of the maximal effect. One may read the IC50 as the concentration that inhibits the measured activity by half. The low end stands for inhibition by little substance, the high end for a need for much substance. On to `O=C1N/C(=N\N=C\c2ccccc2)C2(CCCCC2)O1`, for which the EC50 is over 200 µM and the IC50 worked out at 97.7 µM.

On to `COC(=O)C(=C\Sc1ccccc1)/C=C/C(=O)OC(C)(C)C`, for which the result was inactive.

Turning to `Cc1nc2c(O)ccc(O)c2nc1C`, the EC50 was over 200 µM and the IC50 was 17.8 µM. As for `O=c1[nH]c2ccccc2c2c1CCO2`, the outcome was inactive. On the same count and under the same terms, next, `O=C1c2ccccc2C(=O)C1c1ccc2c(ccc3ccccc32)n1`: “inactive”. As to `CCCCCCCCCCCCNC(=O)C(O)C(O)C(O)C(COS(=O)(=O)O)OS(=O)(=O)O` (centres undefined), the EC50 was over 200 µM and the IC50 stood at 30.2 µM. The matching figures for `Nc1nc2c(ncn2CC2OC(CO)C(CO)O2)c(=O)[nH]1` (centres undefined): over 115 µM and over 115 µM. Regarding `COc1ccc(-c2nnc3cc(C)n4nnnc4n23)cc1OC`, the EC50 was over 200 µM and the IC50 was over 200 µM. In the case of `CC(NCCNC(C)C(=O)O)C(=O)O` (centres undefined), the EC50 is over 676 µM and the IC50 is over 676 µM. Take `C/C=C1/C(=Cc2[nH]c(C=c3[nH]/c(=C/C4=NC(=O)C(CC)=C4C)c(C)c3CCC(=O)O)c(CCC(=O)O)c2C)NC(=O)C1C` (centres undefined): the EC50 is over 28.8 µM and the concentration for half-maximal inhibition (IC50) is over 28.8 µM. For `O=C1NC(O)c2ccccc2O1` (centres undefined), the EC50 was 85.1 µM and the half-inhibitory concentration (IC50) was over 200 µM. The like results for `CC12CC3CC(C)(C1)CC(N=[N+]=[N-])(C3)C2` were, in that order, over 91.2 µM and over 91.2 µM. The like results for `C=CC(=O)C#Cc1cnc(OC)nc1OC` were, in that order, over 200 µM and 1.1 µM. On to `COC(=O)c1ccccc1N(C(=O)c1ccccc1)c1ccccc1C`, for which the result was inactive. As for `NC(N)=NS(=O)(=O)c1ccc(Nc2c3ccccc3nc3c(C(=O)NCCO)cccc23)cc1`, the EC50 is over 200 µM and the 50% inhibitory concentration (IC50) is 8.91 µM. With `COc1cc2c(cc1OC)/C(=C\c1ccccc1N)C(=O)OC2`, the outcome was inactive. Same read-out and setting: next, `OC[C@H]1NC[C@@H](O)[C@@H](O)[C@H]1O`: “inactive”; `Cc1ccc(Cc2n[nH]c(=O)n2-c2ccccc2)cc1`: “inactive”. With `Nn1c(SCC(=O)NCc2ccccc2)nc2ccccc2c1=O`, the EC50 is 12.6 µM and the IC50 worked out at 95.5 µM. For `COC(=O)c1cc(C(=CC=O)c2cc(Cl)c(OC)c(C(=O)OC)c2)cc(Cl)c1OC`, the EC50 is over 200 µM and the IC50 is 8.91 µM. Consider `Cc1c(N)nc(C(CC(N)=O)NCC(N)C(N)=O)nc1C(=O)NC(C(=O)NC(C)C(O)C(C)C(=O)NC(C(=O)NCCc1nc(-c2nc(C(=O)NCCCNCCCCN)cs2)cs1)C(C)O)C(OC1OC(CO)C(O)C(O)C1OC1OC(CO)C(O)C(OC(N)=O)C1O)c1cnc[nH]1` (centres undefined), for which the outcome was inactive. `O=C(O)c1cccc(C(=O)O)c1-c1c(C(=O)O)cccc1C(=O)O` gave an EC50 of over 200 µM and an IC50 of over 200 µM. On to `CCOP(=O)(OCC)/C(C#N)=C/c1ccc(-c2cc(C(F)(F)F)cc(C(F)(F)F)c2)o1`, for which the EC50 was over 200 µM and the IC50 was found to be 11.7 µM. The like results for `CC(=O)Oc1c2c(c(O)c3ccccc13)C(n1cnc3c(ncn3C3OC(CO)C4OC(C)(C)OC43)c1=N)CCC2` (centres undefined) were, in that order, over 45.7 µM and 12.9 µM. The matching figures for `COC1/C=C\OC2(C)Oc3c(C)c(O)c4c(O)c(c(/C=N\NC(=O)CC(=O)N/N=C/c5c6c(O)c7c(O)c(C)c8c(c7c5O)C(=O)C(C)(O/C=C/C(OC)C(C)C(OC(C)=O)C(C)C(O)C(C)C(O)C(C)/C=C/C=C(C)C(=O)N6)O8)c(O)c4c3C2=O)NC(=O)/C(C)=C\C=C/C(C)C(O)C(C)C(O)C(C)C(OC(C)=O)C1C` (centres undefined): over 115 µM and 87.1 µM.

Take `COC(=O)C(N)C(C)c1c[nH]c2ccccc12` (centres undefined): the EC50 is over 200 µM and the 50% inhibitory concentration (IC50) was over 200 µM. In the case of `Cc1ccc2c(c1)[nH]c(=S)n2C=C(C#N)C#N`, the EC50 is over 200 µM and the concentration for half-maximal inhibition (IC50) is over 200 µM. Regarding `COCCOCCOCCOc1ccc(C(C#N)N(CCc2ccccc2)C(=O)c2cc(C(=O)N(CCc3ccccc3)C(C#N)c3ccc(OCCOCCOCCOC)cc3)cc(C(=O)N(CCc3ccccc3)C(C#N)c3ccc(OCCOCCOCCOC)cc3)c2)cc1` (centres undefined), the EC50 is over 200 µM and the IC50 was over 200 µM.

With `CC1=CC[C@H](C[C@H](C#CCCCC2OCCO2)O[Si](C(C)C)(C(C)C)C(C)C)C(=O)CC1`, the EC50 was over 200 µM and the IC50 was 9.77 µM. Take `CCOC(=O)C(=CNc1ccc(F)c(F)c1)C(=O)OCC`: the EC50 was over 200 µM and the IC50 came out at 79.4 µM. The like results for `CCC(c1ccccc1)C1NC(=S)NC1=O` (centres undefined) were, in that order, over 200 µM and 138 µM. Consider `O=C(O)C(=O)CC(=O)c1ccc(Cl)cc1`, for which the EC50 is over 200 µM and the half-maximal inhibitory concentration (IC50) was over 200 µM. Turning to `CCOC(=O)c1c(-c2ccc(O)c(OC)c2)c(C#N)c(=S)n(C2OC(CO)C(O)C(O)C2O)c1-c1ccccc1` (centres undefined), the EC50 was over 200 µM; the IC50 was > 200 µM and 117 µM. With `C/C(CN1C(=O)c2ccccc2C1=O)=N\NS(=O)(=O)c1cccc([N+](=O)[O-])c1`, the EC50 was over 617 µM and the IC50 was over 617 µM. As for `CCCCCCCCCCCCCCCC(=O)Nc1ccn(C2CCC(COP(=O)(O)OCC3OC(n4ccc(NC(=O)CCCCCCCCCCCCCCC)nc4=O)CC3OP(=O)(O)OCC3OC(n4ccc(NC(=O)CCCCCCCCCCCCCCC)nc4=O)CS3)O2)c(=O)n1` (centres undefined), the 50% effective concentration (EC50) was 1.1 µM and the IC50 was found to be 83.2 µM. For the molecule `C[C@]12CC[C@H](O)CC1=CC[C@@H]1C2CC[C@]2(C)NC(=O)CCC12` (some centres undefined), the result was inactive. Turning to `Cc1cc(=O)[nH]c(NN2C(Cl)C(=O)C2c2ccc([N+](=O)[O-])cc2)n1` (centres undefined), the EC50 was over 53.7 µM and the half-maximal inhibitory concentration (IC50) came to 8.51 µM.

As for `O=C(/C=C/c1ccc(O)c(O)c1)Oc1ccccc1`, the EC50 was over 200 µM and the half-inhibitory concentration (IC50) was found to be 9.33 µM. For `O=c1cccc(-c2cccc(=O)[nH]2)[nH]1`, the outcome was inactive. As to `O=c1[nH]nc(Nc2ccccc2)c2nnn(C3CCCCC3)c12`, the EC50 was over 174 µM and the IC50 was over 174 µM. For `Cc1ccc(NC(=O)CSc2nc(C)nc3c2sc(=S)n3-c2ccccc2)cc1`, the EC50 is over 200 µM and the half-inhibitory concentration (IC50) turned out to be 138 µM.

On to `O=C1C(=C2CCCC2)CC/C1=C1/SS/C(=C2/CCC(=C3CCCC3)C2=O)S1`, for which the EC50 was over 200 µM and the 50% inhibitory concentration (IC50) came out at 120 µM. `O=C1C(c2ccccc2Cl)[C@H]2CC=C[C@H]2N1O` (some centres undefined): the outcome was inactive.

As to `COC(=O)C1=C(C(=O)OC)SC(=C2c3ccsc3-c3sccc32)S1`, the EC50 is over 200 µM and the IC50 was over 200 µM. As to `NC(N)=N/N=C/c1c(-c2ccc(Cl)cc2)nc2sccn12`, the EC50 is over 200 µM and the IC50 worked out at 3.39 µM.

Regarding `CC1OC(OCC2OC(Oc3ccc4c(=O)c(-c5ccc6c(c5)OCO6)coc4c3)C(O)C(O)C2O)C(O)C(O)C1O` (centres undefined), the half-maximal effective concentration (EC50) was 129 µM and the IC50 was 182 µM. Consider `COc1cc2nc(Sc3c([N+](=O)[O-])ncn3C)[nH]c2cc1OC`, for which the EC50 was over 389 µM and the 50% inhibitory concentration (IC50) was determined as 5.5 µM. Take `C=C(C)C12CC(C)C34OC(CCCCCCCCCCC)(OC1C3C1OC1(CO)C(O)C1(O)C(=O)C(C)=CC14C)O2` (centres undefined): the outcome was active.
